According to ChEMBL document CHEMBL1201862, “PubChem BioAssay data set” (2004):
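Compound exposure: 48 hours, 5 concentrations, 96-well plates. The concentration for 50% growth inhibition is given as GI50.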 Active and inactive are the calls of the source. Rule as the data show it: active = GI50 up to about 1.1 µM and inactive = higher.

Columns and labels:
Experiment in all cases: growth of human tumour cells (NCI), 48 h
SNB-19 = test system: SNB-19
PC-3 = test system: PC-3
KM12 = test system: KM12
RXF 393 = test system: RXF 393
MDA-MB-231 = test system: MDA-MB-231
K562 = test system: K562
TK-10 = test system: TK-10
SR = test system: SR
UO-31 = test system: UO-31
MCF7 = test system: MCF7
Hs-578T = test system: Hs-578T
OVCAR-5 = test system: OVCAR-5
SW-620 = test system: SW-620
HT-29 = test system: HT-29
HCT-15 = test system: HCT-15
COLO 205 = test system: COLO 205
NCI-H226 = test system: NCI-H226
A498 = test system: A498
SK-MEL-28 = test system: SK-MEL-28
DU-145 = test system: DU-145

SMILES	GI50 (SNB-19)	GI50 (PC-3)	GI50 (KM12)	GI50 (RXF 393)	GI50 (MDA-MB-231)	GI50 (K562)	GI50 (TK-10)	GI50 (SR)	GI50 (UO-31)	GI50 (MCF7)	GI50 (Hs-578T)	GI50 (OVCAR-5)	GI50 (SW-620)	GI50 (HT-29)	GI50 (HCT-15)	GI50 (COLO 205)	GI50 (NCI-H226)	GI50 (A498)	GI50 (SK-MEL-28)	GI50 (DU-145)
O=C1C2CCCCC2C(=O)N1n1c(Cc2ccccc2)n[nH]c1=O (stereo not given)	> 100 µM (inactive)	> 100 µM (inactive)	> 100 µM (inactive)	> 100 µM (inactive)	> 100 µM (inactive)	> 100 µM (inactive)	> 100 µM (inactive)	> 100 µM (inactive)	> 100 µM (inactive)	> 100 µM (inactive)	> 100 µM (inactive)	> 100 µM (inactive)	> 100 µM (inactive)	> 100 µM (inactive)	> 100 µM	> 100 µM (inactive)	> 100 µM (inactive)	> 100 µM (inactive)	–	–
COc1ccc2c(c1)C(=O)Cc1ccccc1CC2	> 100 µM (inactive)	–	> 100 µM (inactive)	> 100 µM (inactive)	–	> 100 µM (inactive)	> 100 µM (inactive)	> 100 µM (inactive)	> 100 µM (inactive)	–	–	> 100 µM (inactive)	> 100 µM (inactive)	> 100 µM (inactive)	> 100 µM	> 100 µM (inactive)	> 100 µM (inactive)	> 100 µM (inactive)	> 100 µM (inactive)	–
CC(Cc1ccc(O)cn1)(NC(=O)c1ccccc1)C(=O)O (stereo not given)	> 100 µM (inactive)	> 100 µM (inactive)	> 100 µM (inactive)	> 100 µM (inactive)	> 100 µM (inactive)	> 100 µM (inactive)	> 100 µM (inactive)	> 100 µM (inactive)	> 100 µM (inactive)	–	> 100 µM (inactive)	> 100 µM (inactive)	> 100 µM (inactive)	> 100 µM (inactive)	> 100 µM	> 100 µM (inactive)	> 100 µM (inactive)	–	> 100 µM (inactive)	> 100 µM (inactive)
CC[N+](C)(C)c1ccc(C(=C2C=CC(=[N+](C)C)C=C2)c2ccc(N(C)C)cc2)cc1	–	–	4.55 µM (inactive)	37.3 µM (inactive)	–	3.12 µM (inactive)	28 µM (inactive)	10.6 µM (inactive)	27.5 µM (inactive)	–	–	52 µM (inactive)	4.41 µM (inactive)	4.93 µM (inactive)	22.2 µM	5.31 µM (inactive)	19.7 µM (inactive)	15.9 µM (inactive)	16.9 µM (inactive)	–
O=C(NCCCCN(CCCNC(=O)C(F)(F)F)Cc1ccc2ccccc2c1)C(F)(F)F	14 µM (inactive)	–	17.5 µM (inactive)	17.5 µM (inactive)	16.7 µM (inactive)	16.7 µM (inactive)	20.4 µM (inactive)	–	8.04 µM (inactive)	14.7 µM (inactive)	17.7 µM (inactive)	17.2 µM (inactive)	15.3 µM (inactive)	13.7 µM (inactive)	17.3 µM	14.9 µM (inactive)	17.3 µM (inactive)	20.3 µM (inactive)	16.7 µM (inactive)	21 µM (inactive)
CC(=O)OCCOCNC(=S)N/N=C(\C)c1cccs1	> 100 µM (inactive)	–	> 100 µM (inactive)	> 100 µM (inactive)	–	> 100 µM (inactive)	> 100 µM (inactive)	> 100 µM (inactive)	> 100 µM (inactive)	–	–	> 100 µM (inactive)	> 100 µM (inactive)	> 100 µM (inactive)	> 100 µM	> 100 µM (inactive)	> 100 µM (inactive)	> 100 µM (inactive)	> 100 µM (inactive)	–
O=C1/C(=C\c2cccc(Oc3ccccc3)c2)SC(c2ccccc2)N1c1ccccc1Cl (stereo not given)	24.4 µM (inactive)	–	23 µM (inactive)	20.8 µM (inactive)	30.3 µM (inactive)	23 µM (inactive)	34.8 µM (inactive)	19.3 µM (inactive)	31 µM (inactive)	28.1 µM (inactive)	16.5 µM (inactive)	76 µM (inactive)	33.3 µM (inactive)	19.7 µM (inactive)	41.9 µM	21.8 µM (inactive)	26.2 µM (inactive)	46.1 µM (inactive)	41.2 µM (inactive)	32.9 µM (inactive)
CCOC(=O)c1c(N)sc2c1C(C(=O)OCC)CC2 (stereo not given)	> 100 µM (inactive)	34.4 µM (inactive)	> 100 µM (inactive)	> 100 µM (inactive)	76.7 µM (inactive)	46.5 µM (inactive)	> 100 µM (inactive)	40 µM (inactive)	62.4 µM (inactive)	> 100 µM (inactive)	93.8 µM (inactive)	> 100 µM (inactive)	> 100 µM (inactive)	> 100 µM (inactive)	> 100 µM	> 100 µM (inactive)	> 100 µM (inactive)	14.3 µM (inactive)	> 100 µM (inactive)	–
CN(C)CC1CCC/C(=C\c2ccc(Cl)c(Cl)c2)C1=O (stereo not given)	7.23 µM (inactive)	–	1.84 µM (inactive)	–	4.65 µM (inactive)	1.93 µM (inactive)	3.31 µM (inactive)	1.08 µM (active)	2.74 µM (inactive)	1.64 µM (inactive)	2.99 µM (inactive)	21 µM (inactive)	–	8.45 µM (inactive)	2.41 µM	2.67 µM (inactive)	11.4 µM (inactive)	13.9 µM (inactive)	5.14 µM (inactive)	10.9 µM (inactive)
O=C(CSCC(=O)N/N=C\c1cc(Br)cc(Br)c1O)N/N=C\c1cc(Br)cc(Br)c1O	65.6 µM (inactive)	23.7 µM (inactive)	25.4 µM (inactive)	83.9 µM (inactive)	–	21.9 µM (inactive)	15.6 µM (inactive)	15 µM (inactive)	15.7 µM (inactive)	44.8 µM (inactive)	16.1 µM (inactive)	> 100 µM (inactive)	37 µM (inactive)	39.6 µM (inactive)	22.5 µM	33.7 µM (inactive)	17.7 µM (inactive)	–	26.4 µM (inactive)	62.4 µM (inactive)
O=S(=O)(N/C(=N\O)Nc1ccc(Cl)cc1)c1cc(C(F)(F)F)cc(C(F)(F)F)c1	17.1 µM (inactive)	17.5 µM (inactive)	19.7 µM (inactive)	19 µM (inactive)	18.4 µM (inactive)	29.9 µM (inactive)	19.2 µM (inactive)	–	–	–	23 µM (inactive)	16.3 µM (inactive)	34.3 µM (inactive)	19 µM (inactive)	19.9 µM	18.6 µM (inactive)	19.1 µM (inactive)	–	19.2 µM (inactive)	21.3 µM (inactive)
CC(=O)n1c2c(c(=O)n1-c1ccccc1)[S+]([O-])CCC2 (stereo not given)	> 100 µM (inactive)	–	9.1 µM (inactive)	15.6 µM (inactive)	–	26.7 µM (inactive)	> 100 µM (inactive)	4.53 µM (inactive)	> 100 µM (inactive)	–	–	> 100 µM (inactive)	33.3 µM (inactive)	69.5 µM (inactive)	21.7 µM	> 100 µM (inactive)	> 100 µM (inactive)	> 100 µM (inactive)	> 100 µM (inactive)	–
COc1cccc(/C=N/NC(N)=O)c1O	> 100 µM (inactive)	–	> 100 µM (inactive)	> 100 µM (inactive)	–	> 100 µM (inactive)	> 100 µM (inactive)	0.0603 µM (active)	> 100 µM (inactive)	–	–	> 100 µM (inactive)	> 100 µM (inactive)	> 100 µM (inactive)	> 100 µM	> 100 µM (inactive)	> 100 µM (inactive)	> 100 µM (inactive)	> 100 µM (inactive)	–
COC(=O)C(/C(=N/N)C(=O)Nc1cc(Cl)c(Cl)cc1Cl)c1nc2ccc(Cl)cc2nc1O (stereo not given)	–	> 100 µM (inactive)	> 100 µM (inactive)	> 100 µM (inactive)	> 100 µM (inactive)	> 100 µM (inactive)	> 100 µM (inactive)	87.1 µM (inactive)	42.5 µM (inactive)	> 100 µM (inactive)	> 100 µM (inactive)	> 100 µM (inactive)	> 100 µM (inactive)	> 100 µM (inactive)	> 100 µM	–	> 100 µM (inactive)	> 100 µM (inactive)	> 100 µM (inactive)	–
COc1cc(-c2cc(CCC(=O)Nc3ccccc3[N+](=O)[O-])n(-c3ccc([N+](=O)[O-])cc3[N+](=O)[O-])n2)ccc1O	> 10 µM (inactive)	–	> 10 µM (inactive)	> 10 µM (inactive)	–	82.6 µM (inactive)	> 10 µM (inactive)	> 10 µM (inactive)	> 10 µM (inactive)	–	–	> 10 µM (inactive)	> 10 µM (inactive)	> 10 µM (inactive)	40.7 µM	> 10 µM (inactive)	> 10 µM (inactive)	> 10 µM (inactive)	> 10 µM (inactive)	–
CN1C2(c3ccccc3)C(C(=O)c3ccccc3)=C(C(=O)c3ccccc3)C1(c1ccccc1)c1c(-c3ccccc3)sc(-c3ccccc3)c12	> 100 µM (inactive)	–	> 100 µM (inactive)	> 100 µM (inactive)	–	> 100 µM (inactive)	> 100 µM (inactive)	> 100 µM (inactive)	> 100 µM (inactive)	–	–	> 100 µM (inactive)	> 100 µM (inactive)	> 100 µM (inactive)	> 100 µM	> 100 µM (inactive)	78.5 µM (inactive)	> 100 µM (inactive)	> 100 µM (inactive)	–
COc1ccc(-c2c(C#N)c(O)n(NS(=O)(=O)c3ccc(C)cc3)c(=O)c2C#N)cc1	83.2 µM (inactive)	71.4 µM (inactive)	> 100 µM (inactive)	66.5 µM (inactive)	> 100 µM (inactive)	–	79.3 µM (inactive)	–	–	48.6 µM (inactive)	> 100 µM (inactive)	> 100 µM (inactive)	57.4 µM (inactive)	> 100 µM (inactive)	49.1 µM	> 100 µM (inactive)	> 100 µM (inactive)	57.1 µM (inactive)	82.8 µM (inactive)	–
